These results are taken from patent US7994172B2, “[1H-pyrazolo[3, 4-D]pyrimidin-4-yl]-piperidine or -piperazine compounds as serine-theoronine kinase modulators (P70s6k, Atk1 and Atk2) for the treatment of immunological, inflammatory and proliferative diseases” (Exelixis, Inc., priority 2004, dated 2011).

As a reminder, the IC50 is the concentration at which inhibition is half-maximal.

Molecules are shown by their SMILES. A value given as a limit tells only on which side of the number the result lay.

The target of assay [1] is T1, human p70S6 kinase (p70S6K, kinase domain residues 1-421, T412E mutation) (Homo sapiens, UniProt P23443, T412E).
T1 construct: human p70S6 kinase domainresidues 1-421, containing a T412E mutation; made in house
Kind of assay: p70S6 kinase assay, Luciferase-Coupled Chemiluminescent Kinase assay (LCCA). The assay is classed as biochemical. The conditions noted are these: 5 μM ATP, 12 nM p70S6K; read-out: p70S6K inhibition IC50. The method, then:
(§1) Kinase activity and compound inhibition are investigated using one or more of the three assay formats described below. The ATP concentrations for each assay are selected to be close to the Michaelis-Menten constant (KM) for each individual kinase. Dose-response experiments are performed at 10 different inhibitor concentrations in a 384-well plate format. The data are fitted to four-parameter equation (2) below; where Y is the observed signal, X is the inhibitor concentration, Min is the background signal in the absence of enzyme (0% enzyme activity), Max is the signal in the absence of inhibitor (100% enzyme activity), IC50 is the inhibitor concentration at 50% enzyme inhibition and H represents the empirical Hill's slope to measure the cooperativity. Typically H is close to unity. Y=Min+(Max−Min)/(1+(X/IC50)^H) Equation (2) p70S6 Kinase Assay
Biochemical activity of p70S6 kinase was assessed using a Luciferase-Coupled Chemiluminescent Kinase assay (LCCA) format. Kinase activity was measured as the percent ATP remaining following the kinase reaction. Remaining ATP was detected by luciferase-luciferin-coupled chemiluminescence. Specifically, the reaction was initiated by mixing test compounds, 5 μM ATP, 5 μM RRRLSSLRA peptide and 12 nM p70S6K (baculovirus expressed human p70S6 kinase domainresidues 1-421, containing a T412E mutation) in a 20 uL assay buffer (20 mM Tris-HCL pH 7.5, 10 mM MgCl2, 0.02% Triton X-100, 100 mM DTT, 2 mM MnCl2). The mixture is incubated at ambient temperature for 2 hours after which 20 μL luciferase-luciferin mix is added and the chemiluminescent signal read using a Wallac Victor^2 reader. The luciferase-luciferin mix consists of 50 mM HEPES, pH 7.8, 8.5 μg/mL oxalic acid (pH 7.8), 5 (or 50) mM DTT, 0.4% Triton X-100, 0.25 mg/mL coenzyme A, 63 uM AMP, 28 μg/mL luciferin and 40,000 units/mL luciferase.

For assay [2], the target named is T2, human Akt1 kinase (kinase domain residues R144-A480, activated with PDK1) (Homo sapiens, UniProt P31749).
T2 construct: made in house
Kind of assay: Akt1 kinase assay, Luciferase-Coupled Chemiluminescent Kinase assay (LCCA). The assay is classed as biochemical. The note with it: 1 μM ATP, 1.3 nM Akt1; read-out: Akt-1 inhibition IC50. The method, then: as §1
Biochemical activity of Akt1 kinase was assessed using a Luciferase-Coupled Chemiluminescent Kinase assay (LCCA) format. Kinase activity was measured as the percent ATP remaining following the kinase reaction. Remaining ATP was detected by luciferase-luciferin-coupled chemiluminescence. Specifically, the reaction was initiated by mixing test compounds, 1 μM ATP, 5 μM crosstide peptide and 1.3 nM Akt1 (baculovirus expressed human Akt1 kinase domain residues R144-A480, activated with PDK1) in a 20 uL assay buffer (20 mM Tris-HCL pH 7.5, 10 mM MgCl2, 0.01% Triton X-100, 1 mM DTT, 3 mM MnCl2). The mixture is incubated at ambient temperature for 3 hours after which 20 μL luciferase-luciferin mix is added and the chemiluminescent signal read using a Wallac Victor2 reader. The luciferase-luciferin mix consists of 50 mM HEPES, pH 7.8, 8.5 μg/mL oxalic acid (pH 7.8), 5 (or 50) mM DTT, 0.4% Triton X-100, 0.25 mg/mL coenzyme A, 63 uM AMP, 28 μg/mL luciferin and 40,000 units/mL luciferase.

T2 sequence (P31749 144-480): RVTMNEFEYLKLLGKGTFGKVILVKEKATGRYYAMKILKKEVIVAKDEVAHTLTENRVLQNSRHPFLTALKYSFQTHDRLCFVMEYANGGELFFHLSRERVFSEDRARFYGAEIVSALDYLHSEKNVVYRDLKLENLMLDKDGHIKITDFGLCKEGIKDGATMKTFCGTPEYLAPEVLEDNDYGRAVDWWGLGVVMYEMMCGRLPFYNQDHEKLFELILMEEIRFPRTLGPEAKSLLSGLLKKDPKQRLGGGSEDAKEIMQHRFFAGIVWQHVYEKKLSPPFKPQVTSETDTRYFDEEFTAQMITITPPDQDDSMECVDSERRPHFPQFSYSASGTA
T1 sequence (P23443 1-421 T412E): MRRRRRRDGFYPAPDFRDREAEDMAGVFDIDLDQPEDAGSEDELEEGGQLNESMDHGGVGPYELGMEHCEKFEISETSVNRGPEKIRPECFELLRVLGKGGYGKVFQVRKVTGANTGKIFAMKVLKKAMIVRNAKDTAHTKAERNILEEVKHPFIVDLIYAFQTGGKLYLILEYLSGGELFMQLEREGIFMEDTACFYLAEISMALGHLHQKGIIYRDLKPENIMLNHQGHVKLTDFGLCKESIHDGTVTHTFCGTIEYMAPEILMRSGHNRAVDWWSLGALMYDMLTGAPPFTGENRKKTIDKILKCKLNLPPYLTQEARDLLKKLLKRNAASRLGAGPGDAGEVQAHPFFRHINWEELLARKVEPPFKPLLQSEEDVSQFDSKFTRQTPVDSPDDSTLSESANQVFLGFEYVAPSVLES

Turning to `CN(C)CCNC(=O)C(c1ccc(Cl)cc1)N1CCN(c2ncnc3[nH]nc(Br)c23)CC1` (stereo not drawn) [Entry 9, 2-[4-(3-bromo-1H-pyrazolo[3,4-d]pyrimidin-4-yl)piperazin-1-yl]-2-(4-chlorophenyl)-N-[2-(dimethylamino)ethyl]acetamide], the half-inhibitory concentration (IC50) in assay [1] and in assay [2] was less than 50 nM in each case.
On to `CCN(CC)CCCN(c1ccc(Cl)cc1)C1CCN(c2ncnc3[nH]nc(Br)c23)CC1` [Entry 10, N-[1-(3-bromo-1H-pyrazolo[3,4-d]pyrimidin-4-yl)piperidin-4-yl]-N-(4-chlorophenyl)-N′,N′-diethylpropane-1,3-diamine], for which the IC50 in assay [1] and in assay [2] was less than 50 nM in each case.
Consider `CCN(CC)CCO[C@@H](c1ccc(Cl)cc1)C1CCN(c2ncnc3[nH]nc(Br)c23)CC1` [Entry 102, 2-{[(R)-[1-(3-bromo-1H-pyrazolo[3,4-d]pyrimidin-4-yl)piperidin-4-yl](4-chlorophenyl)methyl]oxy}-N,N-diethylethanamine], for which the IC50 in assay [1] and in assay [2] was less than 50 nM each time.
Take `Clc1ccc([C@H](OCCN2CCOCC2)C2CCN(c3ncnc4[nH]nc(Br)c34)CC2)cc1` [Entry 95, 3-bromo-4-(4-{(R)-(4-chlorophenyl)[(2-morpholin-4-ylethyl)oxy]methyl}piperidin-1-yl)-1H-pyrazolo[3,4-d]pyrimidine]: the IC50 in assay [1] and in assay [2] was less than 50 nM each time.
With `CCN(CC)CCS(=O)(=O)N(c1ccc(Cl)cc1)C1CCN(c2ncnc3[nH]nc(Br)c23)CC1` [Entry 29, N-[1-(3-bromo-1H-pyrazolo[3,4-d]pyrimidin-4-yl)piperidin-4-yl]-N-(4-chlorophenyl)-2-(diethylamino)ethanesulfonamide], the IC50 in assay [1] and in assay [2] was less than 50 nM each time.
On to `Clc1ccc([C@H](OCCN2CCCCC2)C2CCN(c3ncnc4[nH]nc(Br)c34)CC2)cc1` [Entry 93, 3-bromo-4-(4-{(R)-(4-chlorophenyl)[(2-piperidin-1-ylethyl)oxy]methyl}piperidin-1-yl)-1H-pyrazolo[3,4-d]pyrimidine], for which the IC50 in assay [1] and in assay [2] was less than 50 nM each time.
Regarding `OC(c1ccc(Cl)cc1)C1CCN(c2ncnc3[nH]nc(Br)c23)CC1` (stereo not drawn) [Entry 1, [1-(3-bromo-1H-pyrazolo[3,4-d]pyrimidin-4-yl)piperidin-4-yl](4-chlorophenyl)methanol], the IC50 in assay [1] and in assay [2] was less than 50 nM throughout.
`O=C(NCCCN1CCOCC1)c1ccc(CN2CCN(c3ncnc4[nH]nc(Br)c34)CC2)cc1` [Entry 81, 4-{[4-(3-bromo-1H-pyrazolo[3,4-d]pyrimidin-4-yl)piperazin-1-yl]methyl}-N-(3-morpholin-4-ylpropyl)benzamide]: the half-maximal inhibitory concentration (IC50) in assay [1] and in assay [2] was more than 2000 nM in each case.
Consider `CCN(CC)CCCNC(=O)C1(Cc2ccc(Cl)cc2)CCN(c2ncnc3[nH]nc(Br)c23)CC1` [Entry 44, 1-(3-bromo-1H-pyrazolo[3,4-d]pyrimidin-4-yl)-4-[(4-chlorophenyl)methyl]-N-[3-(diethylamino)propyl]piperidine-4-carboxamide], for which the IC50 was less than 50 nM in assay [1] and 50 to 500 nM in assay [2].
In the case of `CN(C)CCNC(=O)N(c1ccc(Cl)cc1)C1CCN(c2ncnc3[nH]nc(Br)c23)CC1` [Entry 12, N-[1-(3-bromo-1H-pyrazolo[3,4-d]pyrimidin-4-yl)piperidin-4-yl]-N-(4-chlorophenyl)-N′-[2-(dimethylamino)ethyl]urea], the 50% inhibitory concentration (IC50) in assay [1] and in assay [2] was less than 50 nM in each case.
`Clc1ccc(NC2CCN(c3ncnc4[nH]nc(Br)c34)CC2)cc1` [Entry 59, 1-(3-bromo-1H-pyrazolo[3,4-d]pyrimidin-4-yl)-N-(4-chlorophenyl)piperidin-4-amine]: the figures for the IC50 in assay [1] and in assay [2] were 50 to 500 nM and more than 2000 nM, respectively.
Taken in the same sequence, the figures for `CN(C)CCNC(=O)C(c1ccc(Cl)cc1)N1CCN(c2ncnc3[nH]nc(Br)c23)CC1=O` (stereo not drawn) [Entry 14, 2-[4-(3-bromo-1H-pyrazolo[3,4-d]pyrimidin-4-yl)-2-oxopiperazin-1-yl]-2-(4-chlorophenyl)-N-[2-(dimethylamino)ethyl]acetamide] were less than 50 nM and less than 50 nM.
For the compound `Fc1cc(CN2CCN(c3ncnc4[nH]nc(Br)c34)CC2)ccc1Cl` [Entry 16, 3-bromo-4-{4-[(4-chloro-3-fluorophenyl)methyl]piperazin-1-yl}-1H-pyrazolo[3,4-d]pyrimidine], the results for the half-maximal inhibitory concentration (IC50) in assay [1] and in assay [2] were less than 50 nM and 50 to 500 nM, respectively.
As to `COCCCNC(=O)c1ccc(CN2CCN(c3ncnc4[nH]nc(Br)c34)CC2)cc1` [Entry 82, 4-{[4-(3-bromo-1H-pyrazolo[3,4-d]pyrimidin-4-yl)piperazin-1-yl]methyl}-N-[3-(methyloxy)propyl]benzamide], the IC50 in assay [1] and in assay [2] was more than 2000 nM each time.
On to `CCN(CC)CCC(=O)NC(c1ccc(Cl)cc1)C1CCN(c2ncnc3[nH]nc(Br)c23)CC1` (stereo not drawn) [Entry 26, N-[[1-(3-bromo-1H-pyrazolo[3,4-d]pyrimidin-4-yl)piperidin-4-yl](4-chlorophenyl)methyl]-N~3~,N~3~-diethyl-beta-alaninamide], for which the concentration for half-maximal inhibition (IC50) in assay [1] and in assay [2] was less than 50 nM in each case.
As to `Clc1ccc(OC2CCN(c3ncnc4[nH]nc(Br)c34)CC2)cc1` [Entry 101, 3-bromo-4-{4-[(4-chlorophenyl)oxy]piperidin-1-yl}-1H-pyrazolo[3,4-d]pyrimidine], the IC50 is 50 to 500 nM in assay [1] and 500 to 2000 nM in assay [2].
In the case of `CN(C)CCCC(c1ccc(Cl)cc1)C1CCN(c2ncnc3[nH]nc(Br)c23)CC1` (stereo not drawn) [Entry 94, 4-[1-(3-bromo-1H-pyrazolo[3,4-d]pyrimidin-4-yl)piperidin-4-yl]-4-(4-chlorophenyl)-N,N-dimethylbutan-1-amine], the concentration for half-maximal inhibition (IC50) in assay [1] and in assay [2] was less than 50 nM each time.
For the compound `Fc1cc([C@H](OCCN2CCCC2)C2CCN(c3ncnc4[nH]nc(Br)c34)CC2)ccc1Cl` [Entry 100, 3-bromo-4-(4-{(R)-(4-chloro-3-fluorophenyl)[(2-pyrrolidin-1-ylethyl)oxy]methyl}piperidin-1-yl)-1H-pyrazolo[3,4-d]pyrimidine], the IC50 in assay [1] and in assay [2] was less than 50 nM throughout.
In the case of `CN(C)CCOCC1CN(c2ncnc3[nH]nc(Br)c23)CCN1Cc1ccc(Cl)cc1` (stereo not drawn) [Entry 83, 2-[({4-(3-bromo-1H-pyrazolo[3,4-d]pyrimidin-4-yl)-1-[(4-chlorophenyl)methyl]piperazin-2-yl}methyl)oxy]-N,N-dimethylethanamine], the 50% inhibitory concentration (IC50) in assay [1] and in assay [2] was more than 2000 nM throughout.
For the compound `CCN(CC)CCNC(c1ccc(Cl)cc1)C1CCN(c2ncnc3[nH]nc(Br)c23)CC1` (stereo not drawn) [Entry 6, N′-[[1-(3-bromo-1H-pyrazolo[3,4-d]pyrimidin-4-yl)piperidin-4-yl](4-chlorophenyl)methyl]-N,N-diethylethane-1,2-diamine], the IC50 in assay [1] and in assay [2] was less than 50 nM throughout.
Regarding `CN(C)CCO[C@H](c1ccc(Cl)cc1)C1CCN(c2ncnc3[nH]nc(Br)c23)CC1` [Entry 89, 2-{[(S)-[1-(3-bromo-1H-pyrazolo[3,4-d]pyrimidin-4-yl)piperidin-4-yl](4-chlorophenyl)methyl]oxy}-N,N-dimethylethanamine], the IC50 in assay [1] and in assay [2] was less than 50 nM each time.
